Experimental data taken from the supplement of paper PMC10307832.

Tests used:
Assay in all cases: relative viability (nuclei count vs DMSO), 5 days (fraction); higher = more cells survive
[1] = tested on: NCI-H727
Procedure, shortened: (§1)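 Cells from lung cancer lines were seeded into 1536-well plates and, one day later, dosed by pin tool. Treatments were either a single drug or a fixed dose of an anchor drug with five library-drug doses (not always all listed) in √10 steps. After 5 days, nuclei were stained in a one-step fixation (final 0.05% Triton X-100, 1% formaldehyde, 1 ug/ml Hoechst) and counted on 4× images, and relative viability is the treated-to-vehicle nuclei ratio, as the median of duplicate plates.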

[2] = tested on: SK-LU-1
Procedure, shortened: as §1

[3] = tested on: NCI-H1975
Procedure, shortened: as §1

[4] = tested on: NCI-H596
Procedure, shortened: as §1

[5] = tested on: EKVX
Procedure, shortened: as §1

[6] = tested on: NCI-H460
Procedure, shortened: as §1

[7] = tested on: NCI-H522
Procedure, shortened: as §1

[8] = tested on: NCI-H1666
Procedure, shortened: as §1

[9] = tested on: LCLC-97TM1
Procedure, shortened: as §1

[10] = tested on: NCI-H1437
Procedure, shortened: as §1

[11] = tested on: PC-3 [JPC-3]
Procedure, shortened: as §1

[12] = tested on: NCI-H838
Procedure, shortened: as §1

[13] = tested on: NCI-H1915
Procedure, shortened: as §1

[14] = tested on: NCI-H441
Procedure, shortened: as §1

[15] = tested on: NCI-H661
Procedure, shortened: as §1

[16] = tested on: NCI-H322M
Procedure, shortened: as §1

[17] = tested on: NCI-H2342
Procedure, shortened: as §1

[18] = tested on: NCI-H647
Procedure, shortened: as §1

[19] = tested on: NCI-H520
Procedure, shortened: as §1

[20] = tested on: NCI-H1650
Procedure, shortened: as §1

[21] = tested on: NCI-H358
Procedure, shortened: as §1

[22] = tested on: NCI-H23
Procedure, shortened: as §1

Question: With `Cc1cn(-c2cc(NC(=O)c3ccc(C)c(Nc4nccc(-c5cccnc5)n4)c3)cc(C(F)(F)F)c2)cn1` [Nilotinib] + O=C(CCCCCCC(=O)Nc1ccccc1)NO [Vorinostat] (partner 1 µM) as the molecule, how does the relative viability ([1]; first compound 0.001 µM) read?
Answer: 1.12

Question: And the relative viability ([1]; first compound 0.003162 µM)?
Answer: 1.35

Question: And the relative viability ([1]; first compound 0.01 µM)?
Answer: 1.16

Question: And the relative viability ([1]; first compound 0.03162 µM)?
Answer: 1.15

Question: And the relative viability ([1]; first compound 0.1 µM)?
Answer: 1.05

Question: And the relative viability ([2]; first compound 0.001 µM)?
Answer: 0.628

Question: And the relative viability ([2]; first compound 0.003162 µM)?
Answer: 0.756

Question: What about the relative viability ([2]; first compound 0.01 µM) of the same molecule?
Answer: 0.865

Question: What about the relative viability ([2]; first compound 0.03162 µM) of the same molecule?
Answer: 0.632

Question: What about the relative viability ([2]; first compound 0.1 µM) of the same molecule?
Answer: 0.692

Question: And the relative viability ([3]; first compound 0.001 µM)?
Answer: 0.598

Question: And the relative viability ([3]; first compound 0.003162 µM)?
Answer: 0.742

Question: And the relative viability ([3]; first compound 0.01 µM)?
Answer: 0.702

Question: What about the relative viability ([3]; first compound 0.03162 µM) of the same molecule?
Answer: 0.489

Question: What about the relative viability ([3]; first compound 0.1 µM) of the same molecule?
Answer: 0.643

Question: And the relative viability ([4]; first compound 0.001 µM)?
Answer: 0.518

Question: What about the relative viability ([4]; first compound 0.003162 µM) of the same molecule?
Answer: 0.455

Question: And the relative viability ([4]; first compound 0.01 µM)?
Answer: 0.651

Question: What about the relative viability ([4]; first compound 0.03162 µM) of the same molecule?
Answer: 0.532

Question: And the relative viability ([4]; first compound 0.1 µM)?
Answer: 0.498

Question: And the relative viability ([5]; first compound 0.001 µM)?
Answer: 0.65

Question: What about the relative viability ([5]; first compound 0.003162 µM) of the same molecule?
Answer: 0.879

Question: And the relative viability ([5]; first compound 0.01 µM)?
Answer: 0.704

Question: What about the relative viability ([5]; first compound 0.03162 µM) of the same molecule?
Answer: 0.55

Question: And the relative viability ([5]; first compound 0.1 µM)?
Answer: 0.718

Question: What about the relative viability ([6]; first compound 0.001 µM) of the same molecule?
Answer: 0.428

Question: And the relative viability ([6]; first compound 0.003162 µM)?
Answer: 0.996

Question: And the relative viability ([6]; first compound 0.01 µM)?
Answer: 1.34

Question: What about the relative viability ([6]; first compound 0.03162 µM) of the same molecule?
Answer: 0.33

Question: And the relative viability ([6]; first compound 0.1 µM)?
Answer: 0.535

Question: What about the relative viability ([7]; first compound 0.01 µM) of the same molecule?
Answer: 1.01

Question: And the relative viability ([7]; first compound 0.03162 µM)?
Answer: 0.749

Question: And the relative viability ([7]; first compound 0.1 µM)?
Answer: 0.786

Question: And the relative viability ([8]; first compound 0.001 µM)?
Answer: 0.942

Question: What about the relative viability ([8]; first compound 0.003162 µM) of the same molecule?
Answer: 1.11

Question: What about the relative viability ([8]; first compound 0.01 µM) of the same molecule?
Answer: 1.17

Question: And the relative viability ([8]; first compound 0.03162 µM)?
Answer: 1.11

Question: What about the relative viability ([8]; first compound 0.1 µM) of the same molecule?
Answer: 1.17

Question: And the relative viability ([9]; first compound 0.001 µM)?
Answer: 0.605

Question: And the relative viability ([9]; first compound 0.003162 µM)?
Answer: 0.891

Question: And the relative viability ([9]; first compound 0.01 µM)?
Answer: 0.964

Question: What about the relative viability ([9]; first compound 0.03162 µM) of the same molecule?
Answer: 0.515

Question: What about the relative viability ([9]; first compound 0.1 µM) of the same molecule?
Answer: 0.102

Question: And the relative viability ([10]; first compound 0.001 µM)?
Answer: 0.664

Question: And the relative viability ([10]; first compound 0.003162 µM)?
Answer: 0.97

Question: What about the relative viability ([10]; first compound 0.01 µM) of the same molecule?
Answer: 0.878

Question: And the relative viability ([10]; first compound 0.03162 µM)?
Answer: 0.506

Question: What about the relative viability ([10]; first compound 0.1 µM) of the same molecule?
Answer: 0.583

Question: What about the relative viability ([11]; first compound 0.001 µM) of the same molecule?
Answer: 0.792

Question: What about the relative viability ([11]; first compound 0.01 µM) of the same molecule?
Answer: 0.668

Question: And the relative viability ([11]; first compound 0.03162 µM)?
Answer: 0.691

Question: And the relative viability ([11]; first compound 0.1 µM)?
Answer: 0.53

Question: And the relative viability ([12]; first compound 0.001 µM)?
Answer: 0.693

Question: What about the relative viability ([12]; first compound 0.003162 µM) of the same molecule?
Answer: 0.783

Question: What about the relative viability ([12]; first compound 0.01 µM) of the same molecule?
Answer: 0.753

Question: And the relative viability ([12]; first compound 0.03162 µM)?
Answer: 0.726

Question: And the relative viability ([12]; first compound 0.1 µM)?
Answer: 0.688

Question: And the relative viability ([13]; first compound 0.001 µM)?
Answer: 0.454

Question: And the relative viability ([13]; first compound 0.003162 µM)?
Answer: 0.488

Question: What about the relative viability ([13]; first compound 0.01 µM) of the same molecule?
Answer: 0.501

Question: And the relative viability ([13]; first compound 0.03162 µM)?
Answer: 0.385

Question: And the relative viability ([13]; first compound 0.1 µM)?
Answer: 0.299

Question: What about the relative viability ([14]; first compound 0.001 µM) of the same molecule?
Answer: 0.544

Question: What about the relative viability ([14]; first compound 0.003162 µM) of the same molecule?
Answer: 1.02

Question: And the relative viability ([14]; first compound 0.01 µM)?
Answer: 0.742

Question: What about the relative viability ([14]; first compound 0.03162 µM) of the same molecule?
Answer: 0.532

Question: What about the relative viability ([14]; first compound 0.1 µM) of the same molecule?
Answer: 0.71

Question: And the relative viability ([15]; first compound 0.001 µM)?
Answer: 0.792

Question: What about the relative viability ([15]; first compound 0.003162 µM) of the same molecule?
Answer: 0.889

Question: And the relative viability ([15]; first compound 0.01 µM)?
Answer: 0.875

Question: What about the relative viability ([15]; first compound 0.03162 µM) of the same molecule?
Answer: 0.642

Question: What about the relative viability ([15]; first compound 0.1 µM) of the same molecule?
Answer: 0.615

Question: What about the relative viability ([16]; first compound 0.001 µM) of the same molecule?
Answer: 0.896

Question: And the relative viability ([16]; first compound 0.003162 µM)?
Answer: 0.68

Question: And the relative viability ([16]; first compound 0.01 µM)?
Answer: 0.962

Question: What about the relative viability ([16]; first compound 0.03162 µM) of the same molecule?
Answer: 0.848

Question: What about the relative viability ([16]; first compound 0.1 µM) of the same molecule?
Answer: 0.913

Question: And the relative viability ([17]; first compound 0.001 µM)?
Answer: 0.675

Question: And the relative viability ([17]; first compound 0.003162 µM)?
Answer: 0.685

Question: And the relative viability ([17]; first compound 0.01 µM)?
Answer: 0.668

Question: And the relative viability ([17]; first compound 0.03162 µM)?
Answer: 0.681

Question: What about the relative viability ([17]; first compound 0.1 µM) of the same molecule?
Answer: 0.655

Question: What about the relative viability ([18]; first compound 0.001 µM) of the same molecule?
Answer: 0.433

Question: And the relative viability ([18]; first compound 0.003162 µM)?
Answer: 0.671

Question: And the relative viability ([18]; first compound 0.01 µM)?
Answer: 0.418

Question: What about the relative viability ([18]; first compound 0.03162 µM) of the same molecule?
Answer: 0.314

Question: And the relative viability ([18]; first compound 0.1 µM)?
Answer: 0.245

Question: What about the relative viability ([19]; first compound 0.001 µM) of the same molecule?
Answer: 0.584

Question: What about the relative viability ([19]; first compound 0.003162 µM) of the same molecule?
Answer: 0.79

Question: And the relative viability ([19]; first compound 0.01 µM)?
Answer: 0.81

Question: And the relative viability ([19]; first compound 0.03162 µM)?
Answer: 0.617

Question: What about the relative viability ([19]; first compound 0.1 µM) of the same molecule?
Answer: 0.699

Question: And the relative viability ([20]; first compound 0.001 µM)?
Answer: 0.49

Question: What about the relative viability ([20]; first compound 0.003162 µM) of the same molecule?
Answer: 0.733

Question: And the relative viability ([20]; first compound 0.01 µM)?
Answer: 0.746

Question: What about the relative viability ([20]; first compound 0.03162 µM) of the same molecule?
Answer: 0.488

Question: What about the relative viability ([20]; first compound 0.1 µM) of the same molecule?
Answer: 0.528

Question: And the relative viability ([21]; first compound 0.001 µM)?
Answer: 0.601

Question: What about the relative viability ([21]; first compound 0.003162 µM) of the same molecule?
Answer: 0.747

Question: And the relative viability ([21]; first compound 0.01 µM)?
Answer: 0.834

Question: And the relative viability ([21]; first compound 0.03162 µM)?
Answer: 0.411

Question: And the relative viability ([21]; first compound 0.1 µM)?
Answer: 0.424

Question: And the relative viability ([22]; first compound 0.001 µM)?
Answer: 0.48

Question: And the relative viability ([22]; first compound 0.003162 µM)?
Answer: 0.438

Question: What about the relative viability ([22]; first compound 0.01 µM) of the same molecule?
Answer: 0.685

Question: What about the relative viability ([22]; first compound 0.03162 µM) of the same molecule?
Answer: 0.239

Question: What about the relative viability ([22]; first compound 0.1 µM) of the same molecule?
Answer: 0.546
